pIC50: −log10 of the molar value.
Columns and labels:
[1] = molecular target: T1, FAPα enzyme (Homo sapiens, UniProt Q12884); assay: FAPα enzyme activity test (Z-Gly-Pro-AMC substrate, fluorescence); type: biochemical; settings: for IC50 value against FAPα enzyme, times that of the positive drug FAPI-04: relative to FAPI-04; for inhibition at 0.1 µM: read-out: Inhibition rate 100 nM
T1 sequence (Q12884 1-760): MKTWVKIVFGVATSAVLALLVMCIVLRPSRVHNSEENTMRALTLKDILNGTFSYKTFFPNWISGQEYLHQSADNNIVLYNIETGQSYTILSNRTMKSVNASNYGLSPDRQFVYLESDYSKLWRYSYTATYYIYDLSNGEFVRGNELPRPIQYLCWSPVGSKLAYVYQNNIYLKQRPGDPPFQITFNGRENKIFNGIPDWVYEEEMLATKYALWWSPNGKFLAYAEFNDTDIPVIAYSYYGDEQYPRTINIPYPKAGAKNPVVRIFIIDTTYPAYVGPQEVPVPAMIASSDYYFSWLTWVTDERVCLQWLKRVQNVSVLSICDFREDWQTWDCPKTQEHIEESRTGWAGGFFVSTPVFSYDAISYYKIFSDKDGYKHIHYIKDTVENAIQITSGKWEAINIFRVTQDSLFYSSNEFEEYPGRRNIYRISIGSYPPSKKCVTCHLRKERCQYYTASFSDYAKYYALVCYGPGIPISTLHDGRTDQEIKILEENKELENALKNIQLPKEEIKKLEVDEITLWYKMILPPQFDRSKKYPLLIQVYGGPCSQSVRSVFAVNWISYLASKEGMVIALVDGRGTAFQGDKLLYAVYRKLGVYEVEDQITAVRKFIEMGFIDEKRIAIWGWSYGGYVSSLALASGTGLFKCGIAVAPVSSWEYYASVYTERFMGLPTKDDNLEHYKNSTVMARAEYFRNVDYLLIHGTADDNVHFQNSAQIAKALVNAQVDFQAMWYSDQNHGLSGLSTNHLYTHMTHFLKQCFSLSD
Experimental: The substrate (Z-Gly-Pro-AMC) was diluted with DMSO to prepare a 0.5 mM stock solution. Before each experiment, the 0.5 mM stock solution was diluted with PBS to 50 µM for later use. The FAPα protein was diluted with PBS to 0.5 ng/µl for later use. The test compounds and positive control were diluted with PBS to a concentration of 100 nM or 200 nM for the determination of single-point inhibition rate. […] The test compounds and positive control were subjected to a 5-fold serial dilution with PBS to obtain 8 gradients for later use, with the highest concentration being 10 µM, and the lowest concentration being […]. Test method: 85 µl of the FAPα dilution and 10 µl of the compound dilution were added to a microplate, uniformly mixed and incubated at 37°C for 10 min. Then, 5 µL of 50 µM substrate was added, uniformly mixed and incubated at 37°C for 10 min. The microplate was read on a microplate reader, with an excitation wavelength of 380 nm and an emission wavelength of 465 nm.

[2] = system: U-87 MG cells; assay: PET imaging test of radiolabelled compounds in U-87 MG tumour-bearing mice; type: in vivo, BALB/c nude mice
Experimental: Cell information: U-87 MG cells (Wuhan Pricella Biotechnology Co., Ltd., Cat. No.: CL-0238, Lot No.: YBMIL8BQHO); Culture conditions: U-87 MG cell specific medium (MEM + 10% FBS + 1% P/S); Number of passages: 6-9;
Germline: BALB/c nude mice; age: 4-5 weeks old; Body weight: 15-22 g;
A sufficient quantity of U-87 MG cells was prepared and inoculated into the posterior position of the right forelimb of […] mice in an inoculation volume of 100 µL, containing 50% Matrigel and 4 × 10^6 cells.
The workbench surface was wiped with 75% medical alcohol and covered with a disposable sterile tablecloth. 0.5 mL insulin syringes, alcohol swabs, cotton swabs and a marking pen were prepared in the injection room. The mice were placed in a mouse restrainer, and the tails of the mice were disinfected with alcohol swabs. 0.2-0.5 mL of the formulated test sample was injected into each mouse via the tail vein, with the time of each injection, the activity of the syringe and the activity of the empty syringe recorded. Tumour-bearing mice were anesthetized with isoflurane, then placed in a prone position on small animal PET beds and fixed. PET static image acquisition was performed for 10 min at 0.5 h, 1 h, 2 h and 4 h after administration; a whole-body CT scan was performed before each static scan to obtain distribution images of the labelled compound throughout the body of tumour-bearing mice. PET images at different time points after administration were obtained for each experimental animal. Major organs were selected and delineated, specifically including: parts such as tumour, muscle, bone, lung, brain, liver and kidney. The radioactive accumulation and clearance of the labelled compounds in tumours and non-target tissues of tumour-bearing mice were observed.
Using the same experimental method as in Example 2, the ratio of radioactive accumulation of the labelled compound ^18F-FAPI-42 in tumours to non-target tissues in tumour-bearing mice was observed. Table 4.1 Ratios of 18F-FAPI-42 in tumours to non-target organs (tissues)

N#C[C@@H]1CC(F)(F)CN1C(=O)CNC(=O)c1ccnc2ccc(OCCCN3CCN(C(=O)CN4CCN(CC(=O)O)CCN(CC(=O)O)CC4)CC3)cc12 [FAP-42]
IC50 value against FAPα enzyme, times that of the positive drug FAPI-04 [1]: 2.27 times

N#C[C@@H]1CC(F)(F)CN1C(=O)CNC(=O)c1ccnc2ccc(OCCCN3CCN(C(=O)CN4CCN(CC(=O)[O-])CCN(CC(=O)[O-])CCN(CC(=O)[O-])CC4)CC3)cc12.[68Ga+3] [^68Ga-FAPI-04]
Ratio Tumour/brain ([2]; 0.5 h): 6.36 | Ratio Tumour/gallbladder ([2]; 0.5 h): 4.89 | Ratio Tumour/kidney ([2]; 0.5 h): 3.35 | Ratio Tumour/liver ([2]; 0.5 h): 4.79 | Ratio Tumour/lung ([2]; 0.5 h): 4.73 | Ratio Tumour/muscle ([2]; 0.5 h): 15.38 | Ratio Tumour/shoulder joint ([2]; 0.5 h): 2.62 | Uptake Brain ([2]; 0.5 h after administration): 1.16 ± 0.28 % ID/g | Uptake Gallbladder ([2]; 0.5 h after administration): 1.51 ± 0.18 % ID/g | Uptake Kidney ([2]; 0.5 h after administration): 2.20 ± 0.10 % ID/g | Uptake Liver ([2]; 0.5 h after administration): 1.54 ± 0.23 % ID/g | Uptake Lung ([2]; 0.5 h after administration): 1.56 ± 0.45 % ID/g | Uptake Muscle ([2]; 0.5 h after administration): 0.48 ± 0.39 % ID/g | Uptake Shoulder joint ([2]; 0.5 h after administration): 2.82 ± 0.57 % ID/g | Uptake Tumour (max) ([2]; 0.5 h after administration): 13.17 ± 3.28 % ID/g | Uptake Tumour (mean) ([2]; 0.5 h after administration): 7.38 ± 1.41 % ID/g | Ratio Tumour/brain ([2]; 1.0 h): 9.13 | Ratio Tumour/gallbladder ([2]; 1.0 h): 5.46 | Ratio Tumour/kidney ([2]; 1.0 h): 3.42 | Ratio Tumour/liver ([2]; 1.0 h): 5.76 | Ratio Tumour/lung ([2]; 1.0 h): 5.81 | Ratio Tumour/muscle ([2]; 1.0 h): 13.89 | Ratio Tumour/shoulder joint ([2]; 1.0 h): 2.72 | Uptake Brain ([2]; 1 h after administration): 0.70 ± 0.09 % ID/g | Uptake Gallbladder ([2]; 1 h after administration): 1.17 ± 0.36 % ID/g | Uptake Kidney ([2]; 1 h after administration): 1.87 ± 0.20 % ID/g | Uptake Liver ([2]; 1 h after administration): 1.11 ± 0.31 % ID/g | Uptake Lung ([2]; 1 h after administration): 1.10 ± 0.12 % ID/g | Uptake Muscle ([2]; 1 h after administration): 0.46 ± 0.10 % ID/g | Uptake Shoulder joint ([2]; 1 h after administration): 2.35 ± 0.44 % ID/g | Uptake Tumour (max) ([2]; 1 h after administration): 10.98 ± 2.02 % ID/g | Uptake Tumour (mean) ([2]; 1 h after administration): 6.39 ± 0.92 % ID/g | Ratio Tumour/brain ([2]; 2.0 h): 8.95 | Ratio Tumour/gallbladder ([2]; 2.0 h): 5.34 | Ratio Tumour/kidney ([2]; 2.0 h): 3.42 | Ratio Tumour/liver ([2]; 2.0 h): 5.71 | Ratio Tumour/lung ([2]; 2.0 h): 5.71 | Ratio Tumour/muscle ([2]; 2.0 h): 10.21 | Ratio Tumour/shoulder joint ([2]; 2.0 h): 2.77 | Uptake Brain ([2]; 2 h after administration): 0.65 ± 0.21 % ID/g | Uptake Gallbladder ([2]; 2 h after administration): 1.09 ± 0.36 % ID/g | Uptake Kidney ([2]; 2 h after administration): 1.70 ± 0.17 % ID/g | Uptake Liver ([2]; 2 h after administration): 1.02 ± 0.23 % ID/g | Uptake Lung ([2]; 2 h after administration): 1.02 ± 0.21 % ID/g | Uptake Muscle ([2]; 2 h after administration): 0.57 ± 0.27 % ID/g | Uptake Shoulder joint ([2]; 2 h after administration): 2.10 ± 0.36 % ID/g | Uptake Tumour (max) ([2]; 2 h after administration): 10.38 ± 2.02 % ID/g | Uptake Tumour (mean) ([2]; 2 h after administration): 5.82 ± 1.01 % ID/g | Ratio Tumour/brain ([2]; 4.0 h): 8.20 | Ratio Tumour/gallbladder ([2]; 4.0 h): 4.75 | Ratio Tumour/kidney ([2]; 4.0 h): 3.34 | Ratio Tumour/liver ([2]; 4.0 h): 4.47 | Ratio Tumour/lung ([2]; 4.0 h): 5.43 | Ratio Tumour/muscle ([2]; 4.0 h): 10.74 | Ratio Tumour/shoulder joint ([2]; 4.0 h): 2.59 | Uptake Brain ([2]; 4 h after administration): 0.55 ± 0.17 % ID/g | Uptake Gallbladder ([2]; 4 h after administration): 0.95 ± 0.46 % ID/g | Uptake Kidney ([2]; 4 h after administration): 1.35 ± 0.23 % ID/g | Uptake Liver ([2]; 4 h after administration): 1.01 ± 0.29 % ID/g | Uptake Lung ([2]; 4 h after administration): 0.83 ± 0.20 % ID/g | Uptake Muscle ([2]; 4 h after administration): 0.42 ± 0.10 % ID/g | Uptake Shoulder joint ([2]; 4 h after administration): 1.74 ± 0.42 % ID/g | Uptake Tumour (max) ([2]; 4 h after administration): 12.40 ± 0.85 % ID/g | Uptake Tumour (mean) ([2]; 4 h after administration): 4.51 ± 0.28 % ID/g

N#C[C@@H]1CC(F)(F)CN1C(=O)CNC(=O)c1ccnc2ccc(OCCCN3CCN(C(=O)CN4CCN5CCN(CC4)CC(=O)[O][Al]([18F])[O]C(=O)C5)CC3)cc12 [^18F-FAPI-42]
Ratio Tumour/gallbladder ([2]; 0.5 h): 1.21 | Ratio Tumour/intestine ([2]; 0.5 h): 3.14 | Ratio Tumour/gallbladder ([2]; 1.5 h): 1.42 | Ratio Tumour/intestine ([2]; 1.5 h): 1.28 | Ratio Tumour/gallbladder ([2]; 3.0 h): 3.15 | Ratio Tumour/intestine ([2]; 3.0 h): 1.19

N#C[C@@H]1CC(F)(F)CN1C(=O)CNC(=O)c1ccnc2ccc(NC(=O)[C@H]3CC[C@H](CNC(=O)CN4CCN(CC(=O)O)CCN(CC(=O)O)CC4)CC3)cc12 (relative stereo) [Compound 2, 6-(trans-4-(((2-(4,7-dicarboxymethyl-1,4,7-triazacyclononan-1-yl)acetyl)amino)methyl)cyclohexan-1-yl)carboxamido-4-((S)-2-(2-cyano-4,4-difluoropyrrolidin-1-yl)-2-oxoethyl)carbamoylquinoline]
IC50 value against FAPα enzyme, times that of the positive drug FAPI-04 [1]: 0.71 times

N#C[C@@H]1CC(F)(F)CN1C(=O)CNC(=O)c1ccnc2ccc(NC(=O)C3CCC4(CC3)CN(C(=O)CN3CCN(CC(=O)O)CCN(CC(=O)O)CCN(CC(=O)O)CC3)CCO4)cc12 (stereo partly drawn) [Compound 3, 6-((6r,9r)-N-(2-(4,7,10-tricarboxymethyl-1,4,7,10-tetraazacyclododecan-1-yl)acetyl)-1-oxa-4-azaspiro[5.5]undecan-9-yl)carboxamido-4-((S)-2-(2-cyano-4,4-difluoropyrrolidin-1-yl)-2-oxoethyl)carbamoylquinoline]
pIC50 [1]: 9.24 | Inhibition rate 100 nM ([1]; 100 nM compound): 84.70%

N#C[C@@H]1CC(F)(F)CN1C(=O)CNC(=O)c1ccnc2ccc(OCCCN3CCN(C(=O)CN4CCN(CC(=O)O)CCN(CC(=O)O)CCN(CC(=O)O)CC4)CC3)cc12 [FAPI-04]
inhibition at 0.1 µM ([1]; 100 nM compound): 92.3%

N#C[C@@H]1CC(F)(F)CN1C(=O)CNC(=O)c1ccnc2ccc(NC(=O)[C@H]3CC[C@H](CNC(=O)CN4CCN(CC(=O)O)CCN(CC(=O)O)CCN(CC(=O)O)CC4)CC3)cc12 [Compound 1, 6-(trans-4-(((2-(4,7,10-tricarboxymethyl-1,4,7,10-tetraazacyclododecan-1-yl)acetyl)amino)methyl)cyclohexan-1-yl)carboxamido-4-((S)-2-(2-cyano-4,4-difluoropyrrolidin-1-yl)-2-oxoethyl)carbamoylquinoline]
pIC50 [1]: 9.14 | inhibition at 0.1 µM ([1]; 100 nM compound): 84.1%

— patent publication EP4711362A1, “LIGAND TARGETING FIBROBLAST ACTIVATION PROTEIN” (Jiangsu Hengrui Pharmaceuticals Co., Ltd., priority 2023, dated 2024)
